Data as given in patent publication US20170002421A1, “METHODS AND ASSAYS FOR DETERMINING REDUCED BRCA1 PATHWAY FUNCTION IN A CANCER CELL” (THE GENERAL HOSPITAL CORPORATION, priority 2013, published 2017).

Tests used:
[1] = tested on: breast cancer cell line panel; test: Pharmacologic inhibition assay (Crystal Violet, mean percent viability); assay type: cell-based, human
Method: All cell lines were obtained and maintained as previously described^15. Independent pharmacologic inhibition assays were conducted in triplicate for each cell line. Cells were seeded at 20,000 per well in a 24-well plate. After 24 hours, cells were treated in triplicate with indicated concentrations of: DMSO, temozolomide (SIGMA ALDRICH™, T2577), or AZD-2281 (SELLECK CHEMICALS™, S1060). After five days of incubation, cells were fixed in 4% formaldehyde and stained with 1% Crystal Violet (SIGMA ALDRICH™, C0775) for ten minutes at room temperature. Cells were then washed to remove unincorporated dye and plates were inverted to dry overnight. Incorporated dye was extracted with 10% acetic acid and OD595 measurements were obtained within a linear range. Treated cells were normalized to the vehicle-treated control to obtain mean percent viability.

[2] = clinical use, literature refs 34-38; cited from earlier work

O=C(c1cc(Cc2n[nH]c(=O)c3ccccc23)ccc1F)N1CCN(C(=O)C2CC2)CC1 [olaparib]
inhibition (viability) in combination ([1]; 40 nM olaparib combined with 100 uM temozolomide, breast cancer cell line panel (FIG. 4A, lower panel)): exerts inhibition
reduction in viability, single administration ([1]; either drug alone, seven of the tested cell lines with Garnett et al. expression data (FIG. 4B, top and middle panel)): did not demonstrate a significant reduction in viability
inhibitory effects (viability) ([1]; olaparib alone, 40 nM, five days incubation, breast cancer cell line panel (FIG. 4A, middle panel)): does not demonstrate inhibitory effects alone
crossing the blood/brain barrier [2]: evidence of crossing the blood/brain barrier

Cn1nnc2c(C(N)=O)ncn2c1=O [temozolomide]
crossing the blood/brain barrier [2]: can cross the blood/brain barrier
